Laboratory results: patent US4895863A, “Novel imidazo[2,1-B]benzothiazoles” (Roussel Uclaf, priority 1987, dated 1990)

Biological target: benzodiazepine receptors
Test: Affinity for benzodiazepine receptors: inhibition of specific binding of 3H-labelled flunitrazepam in rat rear brain membranes
Parameters: species or system rats
Settings: inhibition of 50% of specific binding of 0.6×10^-9 mol 3H-flunitrazepam; membranes from rear portion of rat brain
Protocol: The affinity of the active ingredients for benzodiazepine receptors was measured using a radioactively labelled (^3 H) compound flunitrazepam in a modified version of the method of Squires et al [Nature, (1977), Vol. 266, p. 732]. The values given in Table 2 below are the concentration (mol×10^-9) of the compound under test which inhibited 50% of the specific binding of 0.6×10^-9 mol of ^3 H-labelled flunitrazepam in preparations of membrances from the rear portion of the brain in rats (IC50 values).

Structure (SMILES)	IC50 [µM]
O=C(c1cn2c(n1)sc1cc(OCc3ccccc3)ccc12)C1CC1 [Example 4, (7-benzyloxy-imidazo[2,1-b]-benzothiazol-2-yl) cyclopropyl-methanone]	0.0032
O=C(c1cn2c(n1)sc1ccccc12)C1CC1 [Example 2]	0.02
O=C(c1cn2c3c(sc2n1)CCCC3)C1CC1 [Example 6, (5,6,7,8-tetrahydro-imidazo[2,1-b]benzothiazol-2-yl) cyclopropyl-methanone]	0.079
CC(C)Oc1ccc2c(c1)sc1nc(C(=O)C3CC3)cn12 [Example 7, (7-isopropoxy-imidazo[2,1-b]benzothiazol-2-yl) cyclopropyl-methanone]	0.0063
O=C(c1cn2c(n1)sc1cc3c(cc12)OCO3)C1CC1 [Example 5]	0.158
Cc1cc2sc3nc(C(=O)C4CC4)cn3c2cc1C [Example 8]	0.06
COc1ccc2c(c1)sc1nc(C(=O)C3CC3)cn12 [Example 1, (7-Methoxy-imidazo[2,1-b]benzothiazol-2-yl)-cyclopropylmethanone]	0.0025
